The record followed here is patent US20110117164A1, “Use of Additive Sites to Control Nitric Oxide Release from Nitric Oxide Donors Contained within Polymers” (priority 2004, published 2011).

The nature of series [1]: Thermal gravimetric analysis under nitrogen (thermal stability of diazeniumdiolates). Type of series: physicochemical. Conditions: nitrogen atmosphere.
The nature of series [2]: Storage stability of polymer films containing diazeniumdiolate (NO release after storage). The conditions noted are these: 4 weeks. It is filed as physicochemical. The method, then:
To determine if polymer films containing such diazeniumdiolates would also remain stable, NO release measurements were conducted for films containing 29 wt. % PVC, 60 wt. % plasticizer (DOS), 4.4 wt. % compound 2d and 6.6 wt. % KTpClPB under two storage conditions: a) room temperature under nitrogen and b) ambient conditions. Initial NO release measurements were performed for freshly prepared films. Additional NO release measurements were conducted for both storage conditions after 1, 2 and 4 weeks. […] The loss of NO may be due in part to the slow decomposition of the diazeniumdiolate within the polymer matrix owing to permeation of water vapor into the polymer film. Although this loss represents a significant percentage of the total NO releasing capability of the film, such films still yield NO surface fluxes higher than that of stimulated endothelial cells (i.e., 4·10^−10 mol·cm^−2·min^−1). However, films stored under a dry nitrogen environment at room temperature maintained 99% of their NO release after a 4-week period.

Series [3] can be described thus: Organic phase pH of polymer films monitored with chromoionophore II (UV-Vis). Type of series: physicochemical. Conditions: PVC films with 5 wt. % donor, PBS buffer; protonated 650 nm, deprotonated 514 nm. An excerpt: To determine, experimentally, if the pH within the film was changing with time, a lipophilic pH chromoionophore was incorporated into PVC films containing 5 wt. % of 2d, both in the presence and absence of KTpClPB. The intensity of the UV-Vis absorbances corresponding to the protonated (λmax=650 nm) and deprontonated (λmax=514 nm) peaks of the chromoionophore were monitored with time spectrophotometrically. […] This further supports the notion that as NO is being released from within the polymer phase, the unreacted diazeniumdiolate groups may require a buffering system to prevent the film from becoming too basic, which in turn may slow further diazeniumdiolate decomposition.
General Procedure for Deprotection to Form Diamine Copolymer (c). 35 mg of the copolymer (b) was dissolved in 2 mL of dichloromethane and then 200 μL of TFA (trifluoroacetic acid) was added dropwise. The solution was stirred at room temperature for about 3 hours. […] The data was recorded as a concentration of NO in PPB or PPM. The total amount of NO released (in moles) was determined by multiplying a constant (specific to each instrument, units of mol ppm^−1 s^−1) by the time interval that data was collected and the concentration. pH Experiments. […]

A further series relates to adult sheep. Nature of the series: Coated VECTRA vascular access grafts implanted as arteriovenous grafts in sheep, 21 days. Type of series: in vivo. An excerpt:
Synthetic vascular access grafts (VECTRA™), a proprietary blend of segmented polyetherurethane and siloxane (20 cm in length and 5 mm in diameter), were coated with compound 2d dispersed within a PVC/DOS matrix with appropriate additives. A sheep model was used for in vivo testing. Arteriovenous grafts connecting the common carotid artery to the ipsilateral external jugular vein were surgically implanted in subcutaneous tunnel in adult sheep. Over a 3-week period, duplex ultrasound and clinical examination were performed to assess graft patency. Grafts were removed at 21 days and underwent gross and histological evaluation. […] In addition, histological studies, using appropriate stains to highlight different regions, confirm the thrombus adherent at the luminal surface and red blood cell infiltration into upper layers of the control grafts (FIG. 11A).

Turning to `CCCCNCCCCCCN(CCCC)/[N+]([O-])=N/O` [Compound 2d, (Z)-1-{N-Butyl-N-[6-(N-butylammoniohexyl)amino]}-diazen-1-ium-1,2-diolate], the “TNO loss (stable up to)” value in series [1] amounted to 104 °C. Further, the “theoretical total NO release achieved after storage” value in series [2] (film 29 wt. % PVC, 60 wt. % DOS, 4.4 wt. % donor, 6.6 wt. % KTpClPB, ambient conditions) is listed as 62%. Moreover, in series [2] (films stored under ambient conditions), the “NO surface flux of films after ambient storage (vs stimulated endothelial cells)” value was > 4·10^−10 mol·cm^−2·min^−1. The “NO release maintained after storage” value in series [2] (same film, dry nitrogen environment at room temperature) came out at 99%. Further, in series [3], the “change of chromoionophore peaks with exposure time, films containing KTpClPB” value is reported as “the intensity of the protonated peak remains constant”; the “change of chromoionophore peaks with exposure time, films without KTpClPB” value was “an increase in the absorbance of the deprotonated peak and a decrease in the protonated peak”. In addition, the graft patency result in the series with adult sheep (duplex ultrasound and clinical examination, n=2) is reported as “patent at 21 days”. In the series with adult sheep (grafts coated with donor in PVC/DOS matrix, removed at 21 days, n=2), the “mean luminal thrombus-free surface area” value came out at 95%. Also, the “histological evaluation of grafts” value in the series with adult sheep (grafts removed at 21 days) was “minimal thrombus formation and red blood cell infiltration”. Further, the “gross evaluation of thrombus formation on grafts” value in the series with adult sheep (grafts removed at 21 days, vs control grafts) was “greatly reduced degree of thrombus formation”.
